# In PMC4723341, “Ribonuclease H/DNA Polymerase HIV-1 Reverse Transcriptase Dual Inhibitor: Mechanistic Studies on the Allosteric Mode of Action of Isatin-Based Compound RMNC6” (PLoS ONE, 2016):
# Columns and labels:
# [1] = test system: HIV-1 RT-associated RNase H activity, V108A RT; experiment: RNase H activity assay, V108A RT; assay type: biochemical, HIV-1 group M subtype B; conditions: V108A RT
# Method: HIV RT-associated RNase H activity was measured as described in 100 μL reaction volume containing 50 mM Tris-HCl buffer pH 7.8, 6 mM MgCl2, 1 mM dithiothreitol (DTT), 80 mM KCl, 0.25 μM hybrid RNA/DNA 5'-GAUCUGAGCCUGGGAGCU-Fluorescin-3' (HPLC, dry, QC: Mass Check) (available from Metabion) 5'-Dabcyl-AGCTCCCAGGCTCAGATC-3'(HPLC, dry, QC: Mass Check), increasing concentrations of inhibitors, whose dilution were made in water, and different amount of enzymes according to a linear range of dose-response curve: 20 ng of WT RT; 60 ng K103N RT; 37.5 ng V106A RT; 75 ng V108A RT; 5 ng Y181C RT; 50 ng Y188A RT; 30 ng Y188L RT; 100 ng E224A RT; 37.5 ng P225A RT; 20 ng P226A RT; 18 ng F227A RT; 30 ng L228A RT; 30 ng W229A RT; 10 ng M230A RT; 30 ng G231A RT; 62.5 ng N474A RT; 1 μg Y501A RT; 100 ng A502F RT; 37.5 ng A508V RT; 38 ng HIV-1 group O RT. The reaction mixture was incubated for 1 h at 37°C, stopped by addition of EDTA and products were measured with a multilabel counter plate reader Victor 3 (Perkin Elmer model 1420–051) equipped with filters for 490/528 nm (excitation/emission wavelength)
# HIV-2 RT = test system: HIV-2 RT; parameters: method as in PMID 15741178; conditions: HIV-2 RT versus HIV-1 RT; cited from earlier work
# [2] = target: T1, HIV-1 RT-associated RDDP activity, E224A RT (Human immunodeficiency virus type 1 group M subtype B, UniProt P04585, E811A); experiment: biochemical; parameters: species or system HIV-1 group M subtype B
# T1 construct: The 1:1 ration between the p66/p51 subunits was also verified; made in house; host or cells: E. coli M15
# [3] = target: T2, HIV-1 RT-associated RDDP activity, N474A RT (Human immunodeficiency virus type 1 group M subtype B, UniProt P04585, N1061A); experiment: biochemical; parameters: species or system HIV-1 group M subtype B
# T2 construct: The 1:1 ration between the p66/p51 subunits was also verified; made in house; host or cells: E. coli M15
# [4] = target: T3, HIV-1 RT-associated RDDP activity, V106A RT (Human immunodeficiency virus type 1 group M subtype B, UniProt P04585, V693A); experiment: biochemical; parameters: species or system HIV-1 group M subtype B
# T3 construct: The 1:1 ration between the p66/p51 subunits was also verified; made in house; host or cells: E. coli M15
# [5] = target: T4, HIV-1 RT-associated RDDP activity, M230A RT (Human immunodeficiency virus type 1 group M subtype B, UniProt P04585, M817A); experiment: biochemical; parameters: species or system HIV-1 group M subtype B
# T4 construct: The 1:1 ration between the p66/p51 subunits was also verified; made in house; host or cells: E. coli M15
# [6] = test system: HIV-1 RT-associated RDDP activity, M230A RT; experiment: biochemical; parameters: species or system HIV-1 group M subtype B; conditions: M230A RT
# [7] = target: T5, HIV-1 RT-associated RDDP activity, P226A RT (Human immunodeficiency virus type 1 group M subtype B, UniProt P04585, P813A); experiment: biochemical; parameters: species or system HIV-1 group M subtype B
# T5 construct: The 1:1 ration between the p66/p51 subunits was also verified; made in house; host or cells: E. coli M15
# [8] = target: T6, HIV-1 RT-associated RDDP activity, Y188L RT (Human immunodeficiency virus type 1 group M subtype B, UniProt P04585, Y775L); experiment: RDDP activity assay, Y188L RT; assay type: biochemical, HIV-1 group M subtype B
# T6 construct: The 1:1 ration between the p66/p51 subunits was also verified; made in house; host or cells: E. coli M15
# [9] = target: DNA polymerase activity of HIV-1 group O RT and wild-type and mutant HIV-1 group M subtype B RTs; experiment: RDDP assays, HIV-1 group O RT and wild-type and mutant HIV-1 group M subtype B RTs together; assay type: biochemical; conditions: wild-type and mutant (K103N, Y181C, Y188L) group M subtype B RTs, read-out: IC50 RDDP, range over all enzymes
# [10] = target: T7, HIV-1 RT-associated RDDP activity, P225A RT (Human immunodeficiency virus type 1 group M subtype B, UniProt P04585, P812A); experiment: biochemical; parameters: species or system HIV-1 group M subtype B
# T7 construct: The 1:1 ration between the p66/p51 subunits was also verified; made in house; host or cells: E. coli M15
# [11] = target: T8, HIV-1 RT-associated RDDP activity, Y501A RT (Human immunodeficiency virus type 1 group M subtype B, UniProt P04585, Y1088A); experiment: biochemical; parameters: species or system HIV-1 group M subtype B
# T8 construct: The 1:1 ration between the p66/p51 subunits was also verified; made in house; host or cells: E. coli M15
# [12] = test system: HIV-1 RT-associated RDDP activity, L228A RT; experiment: biochemical; parameters: species or system HIV-1 group M subtype B; conditions: L228A RT
# [13] = target: T9, HIV-1 RT-associated RDDP activity, L228A RT (Human immunodeficiency virus type 1 group M subtype B, UniProt P04585, L815A); experiment: biochemical; parameters: species or system HIV-1 group M subtype B
# T9 construct: The 1:1 ration between the p66/p51 subunits was also verified; made in house; host or cells: E. coli M15
# [14] = target: T10, HIV-1 RT-associated RDDP activity, V108A RT (Human immunodeficiency virus type 1 group M subtype B, UniProt P04585, V695A); experiment: biochemical; parameters: species or system HIV-1 group M subtype B
# T10 construct: The 1:1 ration between the p66/p51 subunits was also verified; made in house; host or cells: E. coli M15
# [15] = target: T11, HIV-1 RT-associated RDDP activity, A508V RT (Human immunodeficiency virus type 1 group M subtype B, UniProt P04585, A1095V); experiment: biochemical; parameters: species or system HIV-1 group M subtype B
# T11 construct: The 1:1 ration between the p66/p51 subunits was also verified; made in house; host or cells: E. coli M15
# [16] = target: T12, HIV-1 RT-associated RDDP activity, Y181C RT (Human immunodeficiency virus type 1 group M subtype B, UniProt P04585, Y768C); experiment: RDDP activity assay, Y181C RT; assay type: biochemical, HIV-1 group M subtype B
# T12 construct: The 1:1 ration between the p66/p51 subunits was also verified; made in house; host or cells: E. coli M15
# [17] = test system: HIV-1 RT-associated RDDP activity, F227A RT; experiment: biochemical; parameters: species or system HIV-1 group M subtype B; conditions: F227A RT
# [18] = target: T13, HIV-1 RT-associated RDDP activity, F227A RT (Human immunodeficiency virus type 1 group M subtype B, UniProt P04585, F814A); experiment: biochemical; parameters: species or system HIV-1 group M subtype B
# T13 construct: The 1:1 ration between the p66/p51 subunits was also verified; made in house; host or cells: E. coli M15
smiles,measurement,setting,value
"CC(C)c1ccc(O)c(=O)c(O)c1 [BTP, β-thujaplicinol, reference compound]",Fold of increase of RNase H IC50 with respect to wt RT,[1],0.9
same,Times less susceptible than the HIV-1 enzyme,HIV-2 RT,about 3.7
"N#Cc1ccc(-c2csc(NN=C3C(=O)Nc4ccccc43)n2)cc1 [RMNC6, (Z)-4-(2-(2-(2-oxoindolin-3-ylidene)hydrazinyl)thiazol-4-yl)benzonitrile]",IC50,[2],13.8 ± 4.2 µM
same,Fold of increase of RDDP IC50 with respect to wt RT,[2]; E224A RT,1.4
same,IC50,[3],12.7 ± 1.7 µM
same,Fold of increase of RDDP IC50 with respect to wt RT,[3]; N474A RT,1.3
same,IC50,[4],25.1 ± 2.3 µM
same,Fold of increase of RDDP IC50 with respect to wt RT,[4]; V106A RT,2.5
same,IC50,[5],15 ± 3.5 µM
same,Fold of increase of RDDP IC50 with respect to wt RT,[6],1.5
same,IC50,[7],18.9 ± 0.7 µM
same,Fold of increase of RDDP IC50 with respect to wt RT,[7]; P226A RT,1.9
same,IC50,[8],16.5 ± 3.7 µM
same,IC50,[9],5.4 to 20.1 µM
same,IC50,[10],3.1 ± 0.3 µM
same,Fold of increase of RDDP IC50 with respect to wt RT,[10]; P225A RT,0.3
same,IC50,[11],6.6 ± 0.1 µM
same,Fold of increase of RDDP IC50 with respect to wt RT,[11]; Y501A RT,0.7
same,Fold of increase of RDDP IC50 with respect to wt RT,[12],1.3
same,IC50,[13],13.1 ± 1.9 µM
same,IC50,[14],33 ± 5.2 µM
same,Fold of increase of RDDP IC50 with respect to wt RT,[14]; V108A RT,3.4
same,IC50,[15],19.3 ± 2.8 µM
same,Fold of increase of RDDP IC50 with respect to wt RT,[15]; A508V RT,2.0
same,IC50,[16],5.4 ± 0.3 µM
same,Fold of increase of RDDP IC50 with respect to wt RT,[17],1.5
same,IC50,[18],15.2 ± 0.9 µM
